{"source": "patent US20200188405A1", "about": "“COMPOSITION FOR TREATING OCULAR DISORDERS SUCH AS MACULAR DEGENERATION, RETINOPATHY AND GLAUCOMA” (RHEOSTASIS, LLC, priority 2017, published 2020)", "origin": "cited, not measured here", "tested_on": "β (beta) blocker", "details": "ocular applications", "note": "Where a name gives a salt, the structure may show the parent alone.", "data": [{"smiles": "CC(C)(C)NC[C@H](O)COc1nsnc1N1CCOCC1", "note": "[Timolol Maleate]", "values": [{"measurement": "potency as β blocker relative to propranolol", "result": "5-10 times"}]}]}
